From PMC9572083, “Hybrids of 1,4-Quinone with Quinoline Derivatives: Synthesis, Biological Activity, and Molecular Docking with DT-Diaphorase (NQO1)” (Molecules, 2022)

How the values were obtained:
[1] = system: Colo-829 cells; assay: Cytotoxic activity, WST-1 assay, melanoma Colo-829; format: cell-based, human; conditions: for SI (IC50 HFF-1/IC50 cancer line) Colo-829: HFF-1 vs Colo-829; for IC50: Homo sapiens, melanoma Colo-829, 72 h, WST-1
Text: (§1) Anticancer activity of compounds 11–14 was designated against following human cancer cell lines: melanoma (Colo-829), ovarian cancer (SK-OV-3), breast cancer (MDA-MB-231, T47D and MCF-7), lung cancer (A549) and normal fibroblasts (HFF-1). As a reference substance, the doxorubicin was used. The results are presented in Table 1 as IC50, where IC50 means the concentration of tested compounds (µM) causing the growth inhibition of 50% for given tumor cells. The negative value (Neg.) means that the IC50 is higher than 30 µM. Selectivity index (SI) as the ratio of the IC50 for normal fibroblast (HFF-1) to IC50 of the corresponding cell line, is presented in Table S2.
(§2) Compounds 7–14 and doxorubicin were tested for cytotoxic activity in vitro against panel of human cancer cell lines: melanoma (Colo-829, ATCC, Rockville, MD, USA), ovarian cancer (SK-OV-3, ATCC, Rockville, MD, USA), breast cancer (T47D, MCF-7, and MDA-MB-231, ATCC, Rockville, MD, USA) and lung cancer (A549, ATCC, Rockville, MD, USA). The cultured cells were kept at 37 °C and 5% CO2. The cells were seeded (5 × 10^4 cells/well/[…] DMEM supplemented with 10% FCS and streptomycin/penicillin) using 96-well plates (Nunc Thermo Fisher Scientific, Waltham, MA, USA). The tested compounds 7–14 with the concentration of 1–100 µg/mL DMSO were inducted with the cancer cells for 72 h. The WST-1-formazan (proliferation reagent WST-1 assay, Roche Diagnostics, Mannheim, Germany) was detected using a microplate reader at 450 nm. Results were expressed as a mean value of at least three independent experiments performed in triplicate.

[2] = molecular target: T1, NQO1 (DT-diaphorase, EC 1.6.5.5, human recombinant) (Homo sapiens, UniProt P15559); assay: NQO1 substrate NADPH recycling enzymatic assay; format: biochemical; conditions: compound 10 µmol/L, pH 7.4, 25 °C, absorbance at 340 nm
T1 construct: purchased Sigma-Aldrich
Protocol: The interaction between 1,4-quinone moiety of hybrid and NQO1 protein leads to reduction in quinone to hydroquinone and production of reactive oxide form (ROS). According to a literature method, the ability of hybrids 11–14 and streptonigrin (ST) to be a substrate for NQO1 was examined by measuring the oxidation of NADPH to NADP^+ [29, 32].
Compounds 11–14 (10 µmol/L) were tested as NQO1 substrates using the NADPH recycling assay according to the literature method. The recombinant NQO1 (DT-diaphorase, EC 1.6.5.5, human recombinant, Sigma-Aldrich) was used, and the oxidation of NADPH to NADP^+ was measured at the absorption wavelength of 340 nm on the BioTek 800TS microplate reader (BioKom, Janki, Poland). Compounds were dissolved in dimethyl sulfoxide (2 µL) and added to the 96-well plate. The NQO1 protein (1.4 µg/mL) in 50 mmol/L potassium phosphate buffer (pH = 7.4) was added to each well (198 µL) (Nunc Thermo Fisher Scientific, Waltham, MA, USA). Once the 96-well plate was filled with the assay solutions, except the NADPH solution, it was placed into the instrument and left to sit for 5 min before starting the measurements. The enzymatic reaction was initiated by automatically dispensing the NADPH solution into the wells, and data were recorded at 10 s intervals for 5 min at 25 °C. The linear part of the absorbance vs. time graphs (the first 20 s to 1 min) was fitted, and the slopes were calculated. NADPH oxidation rates were compared with reactions lacking the tested compound. Initial velocities were calculated, and data were expressed as µmol NADPH/µmol NQO1/min. All reactions were carried out at least in triplicate.

[3] = system: A549 cells; assay: Cytotoxic activity, WST-1 assay, lung cancer A549; format: cell-based, human; conditions: for SI (IC50 HFF-1/IC50 cancer line) A549: HFF-1 vs A549; for IC50: Homo sapiens, lung cancer A549, 72 h, WST-1
Text: as §1, §2

[4] = system: MDA-MB-231 cells; assay: Cytotoxic activity, WST-1 assay, breast cancer MDA-MB-231; format: cell-based, human; conditions: for SI (IC50 HFF-1/IC50 cancer line) MDA-MB-231: HFF-1 vs MDA-MB-231; for IC50: Homo sapiens, breast cancer MDA-MB-231, 72 h, WST-1
Text: as §1, §2

[5] = system: MCF-7 cells; assay: Cytotoxic activity, WST-1 assay, breast cancer MCF-7; format: cell-based, human; conditions: for SI (IC50 HFF-1/IC50 cancer line) MCF-7: HFF-1 vs MCF-7; for IC50: Homo sapiens, MCF7, breast cancer MCF-7, 72 h, WST-1
Text: as §1, §2

[6] = system: HFF-1 cells; assay: Cytotoxic activity, WST-1 assay, normal fibroblasts HFF-1; format: cell-based; conditions: Homo sapiens, normal fibroblasts HFF-1, 72 h
Text: as §1, §2

[7] = system: SK-OV-3 cells; assay: Cytotoxic activity, WST-1 assay, ovarian cancer SK-OV-3; format: cell-based, human; conditions: for SI (IC50 HFF-1/IC50 cancer line) SK-OV-3: HFF-1 vs SK-OV-3; for IC50: Homo sapiens, ovarian cancer SK-OV-3, 72 h, WST-1
Text: as §1, §2

[8] = system: T47D cells; assay: Cytotoxic activity, WST-1 assay, breast cancer T47D; format: cell-based, human; conditions: for IC50: Homo sapiens, breast cancer T47D, 72 h, WST-1; for SI (IC50 HFF-1/IC50 cancer line) T47D: HFF-1 vs T47D
Text: as §1, §2

T1 sequence (P15559 whole entry): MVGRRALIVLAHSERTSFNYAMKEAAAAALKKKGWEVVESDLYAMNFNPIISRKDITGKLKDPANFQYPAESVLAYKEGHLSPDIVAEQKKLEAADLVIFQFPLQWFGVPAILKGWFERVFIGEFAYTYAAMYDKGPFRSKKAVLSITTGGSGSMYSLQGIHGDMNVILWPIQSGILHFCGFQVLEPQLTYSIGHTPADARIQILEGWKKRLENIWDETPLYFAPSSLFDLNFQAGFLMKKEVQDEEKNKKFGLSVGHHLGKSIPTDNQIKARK

O=C1C(Cl)=C(Oc2cccc3ccc(N4CCCC4)nc23)C(=O)c2cnccc21 [Compound 13e, 6-chloro-7-{[2-(pyrrolidin-1-yl)quinolin-8-yl]oxy}isoquinoline-5,8-dione]
SI (IC50 HFF-1/IC50 cancer line) Colo-829 [1]: 0.79 | IC50 [1]: 19.6 ± 1.32 µM | NQO1 activity (enzymatic conversion rate) [2]: 214 ± 21 µmol NADPH/µmol NQO1/min | SI (IC50 HFF-1/IC50 cancer line) A549 [3]: 1.11 | IC50 [3]: 14 ± 0.26 µM | SI (IC50 HFF-1/IC50 cancer line) MDA-MB-231 [4]: 0.93 | IC50 [4]: 16.6 ± 0.38 µM | SI (IC50 HFF-1/IC50 cancer line) MCF-7 [5]: 0.92 | IC50 [5]: 16.9 ± 0.5 µM | IC50 [6]: 15.5 ± 0.72 µM | SI (IC50 HFF-1/IC50 cancer line) SK-OV-3 [7]: 0.98 | IC50 [7]: 15.8 ± 0.26 µM | IC50 [8]: > 30 µM

O=C1C(Cl)=C(Oc2cccc3ccc(N4CCOCC4)nc23)C(=O)c2ccccc21 [Compound 14f, 2-chloro-3-{[2-(morpholin-4-yl)quinolin-8-yl]oxy}naphthalene-1,4-dione]
IC50 [1]: 11.3 ± 1.97 µM | NQO1 activity (enzymatic conversion rate) [2]: 87 ± 15 µmol NADPH/µmol NQO1/min | IC50 [3]: 14 ± 0.86 µM | IC50 [4]: 2.35 ± 0.09 µM | IC50 [5]: 17.4 ± 1.02 µM | IC50 [6]: 20.3 ± 0.87 µM | IC50 [7]: 14.2 ± 0.76 µM | IC50 [8]: > 30 µM

Cc1ccc2c(n1)C(=O)C(Oc1cccc3ccc(N4CCCC4)nc13)=C(Cl)C2=O [Compound 12e, 6-chloro-2-methyl-7-{[2-(pyrrolidin-1-yl)quinolin-8-yl]oxy}quinoline-5,8-dione]
SI (IC50 HFF-1/IC50 cancer line) Colo-829 [1]: 11.48 | IC50 [1]: 1.53 ± 0.08 µM | NQO1 activity (enzymatic conversion rate) [2]: 600 ± 35 µmol NADPH/µmol NQO1/min | SI (IC50 HFF-1/IC50 cancer line) A549 [3]: 1.16 | IC50 [3]: 15.1 ± 0.39 µM | SI (IC50 HFF-1/IC50 cancer line) MDA-MB-231 [4]: 11.71 | IC50 [4]: 1.5 ± 0.15 µM | SI (IC50 HFF-1/IC50 cancer line) MCF-7 [5]: 9.29 | IC50 [5]: 1.89 ± 0.23 µM | IC50 [6]: 17.6 ± 1.05 µM | SI (IC50 HFF-1/IC50 cancer line) SK-OV-3 [7]: 16.72 | IC50 [7]: 1.05 ± 0.06 µM | SI (IC50 HFF-1/IC50 cancer line) T47D [8]: 1.01 | IC50 [8]: 17.4 ± 1.3 µM

O=C1C(Cl)=C(Oc2cccc3ccc(N4CCCC4)nc23)C(=O)c2ccccc21 [Compound 14e, 2-chloro-3-{[2-(pyrrolidin-1-yl)quinolin-8-yl]oxy}naphthalene-1,4-dione]
SI (IC50 HFF-1/IC50 cancer line) Colo-829 [1]: 0.85 | IC50 [1]: 22 ± 0.6 µM | NQO1 activity (enzymatic conversion rate) [2]: 354 ± 22 µmol NADPH/µmol NQO1/min | SI (IC50 HFF-1/IC50 cancer line) A549 [3]: 0.84 | IC50 [3]: 22.1 ± 0.89 µM | SI (IC50 HFF-1/IC50 cancer line) MDA-MB-231 [4]: 2.43 | IC50 [4]: 7.66 ± 1.12 µM | SI (IC50 HFF-1/IC50 cancer line) MCF-7 [5]: 0.78 | IC50 [5]: 24.05 ± 0.21 µM | IC50 [6]: 18.7 ± 1.36 µM | SI (IC50 HFF-1/IC50 cancer line) SK-OV-3 [7]: 1.17 | IC50 [7]: 15.9 ± 0.22 µM | IC50 [8]: > 30 µM

Cc1ccc2c(n1)C(=O)C(Oc1cccc3ccc(N4CCOCC4)nc13)=C(Cl)C2=O [Compound 12f, 6-chloro-2-methyl-7-{[2-(morpholin-4-yl)quinolin-8-yl]oxy}quinoline-5,8-dione]
SI (IC50 HFF-1/IC50 cancer line) Colo-829 [1]: 1.49 | IC50 [1]: 13.3 ± 0.21 µM | NQO1 activity (enzymatic conversion rate) [2]: 210 ± 20 µmol NADPH/µmol NQO1/min | SI (IC50 HFF-1/IC50 cancer line) A549 [3]: 1.72 | IC50 [3]: 11.6 ± 0.72 µM | SI (IC50 HFF-1/IC50 cancer line) MDA-MB-231 [4]: 1.95 | IC50 [4]: 10.2 ± 0.28 µM | SI (IC50 HFF-1/IC50 cancer line) MCF-7 [5]: 1.41 | IC50 [5]: 14.1 ± 0.67 µM | IC50 [6]: 19.9 ± 0.93 µM | SI (IC50 HFF-1/IC50 cancer line) SK-OV-3 [7]: 1.48 | IC50 [7]: 13.5 ± 0.21 µM | SI (IC50 HFF-1/IC50 cancer line) T47D [8]: 1.15 | IC50 [8]: 17.3 ± 0.26 µM
